PubChem BioAssay AID1259407 (Chemical Carcinogenesis Research Information System (CCRIS), 2018)
The source made the active and inactive calls. How the calls were made is not given here.

Test system: CCRIS mutagenicity, Ames/micronucleus/aberration tests
Test: CCRIS mutagenicity studies

## O=C/C=C/c1ccco1
Test System: AMES SALMONELLA TYPHIMURIUM, Strain/Indicator: TA97, Metabolic Activation: HAMSTER, LIVER, S-9, AROCLOR 1254 (10%), Method: PREINCUBATION
  mutagenic call: inactive; negative
Test System: AMES SALMONELLA TYPHIMURIUM, Strain/Indicator: TA97, Metabolic Activation: HAMSTER, LIVER, S-9, AROCLOR 1254 (30%), Method: PREINCUBATION
  mutagenic call: inactive; negative
Test System: AMES SALMONELLA TYPHIMURIUM, Strain/Indicator: TA97, Metabolic Activation: NONE, Method: PREINCUBATION
  mutagenic call: inactive; negative
Test System: AMES SALMONELLA TYPHIMURIUM, Strain/Indicator: TA97, Metabolic Activation: RAT, LIVER, S-9, AROCLOR 1254 (10%), Method: PREINCUBATION
  mutagenic call: inactive; negative
Test System: AMES SALMONELLA TYPHIMURIUM, Strain/Indicator: TA97, Metabolic Activation: RAT, LIVER, S-9, AROCLOR 1254 (30%), Method: PREINCUBATION
  mutagenic call: inactive; negative
Test System: AMES SALMONELLA TYPHIMURIUM, Strain/Indicator: TA98, Metabolic Activation: HAMSTER, LIVER, S-9, AROCLOR 1254 (10 OR 30%), Method: PREINCUBATION
  mutagenic call: inactive; negative
Test System: AMES SALMONELLA TYPHIMURIUM, Strain/Indicator: TA98, Metabolic Activation: NONE, Method: PREINCUBATION
  mutagenic call: inactive; negative
Test System: AMES SALMONELLA TYPHIMURIUM, Strain/Indicator: TA98, Metabolic Activation: RAT, LIVER, S-9, AROCLOR 1254 (10 OR 30%), Method: PREINCUBATION
  mutagenic call: inactive; negative
Test System: AMES SALMONELLA TYPHIMURIUM, Strain/Indicator: TA100(NR), Metabolic Activation: NONE, Method: PREINCUBATION
  mutagenic call: inactive; negative
Test System: AMES SALMONELLA TYPHIMURIUM, Strain/Indicator: TA100, Metabolic Activation: HAMSTER, LIVER, S-9, AROCLOR 1254 (10%), Method: PREINCUBATION
  mutagenic call: inactive; negative
Test System: AMES SALMONELLA TYPHIMURIUM, Strain/Indicator: TA100, Metabolic Activation: HAMSTER, LIVER, S-9, AROCLOR 1254 (30%), Method: PREINCUBATION
  mutagenic call: inactive; negative
Test System: AMES SALMONELLA TYPHIMURIUM, Strain/Indicator: TA100, Metabolic Activation: NONE, Method: PREINCUBATION
  mutagenic call: inactive; negative
Test System: AMES SALMONELLA TYPHIMURIUM, Strain/Indicator: TA100, Metabolic Activation: RAT, LIVER, S-9, AROCLOR 1254 (10%), Method: PREINCUBATION
  mutagenic call: inactive; negative
Test System: AMES SALMONELLA TYPHIMURIUM, Strain/Indicator: TA100, Metabolic Activation: RAT, LIVER, S-9, AROCLOR 1254 (30%), Method: PREINCUBATION
  mutagenic call: inactive; negative
Test System: AMES SALMONELLA TYPHIMURIUM, Strain/Indicator: TA100, Metabolic Activation: RAT, LIVER, S-9, AROCLOR 1254, Method: PREINCUBATION
  mutagenic call: inactive; negative
Test System: AMES SALMONELLA TYPHIMURIUM, Strain/Indicator: TA1535, Metabolic Activation: HAMSTER, LIVER, S-9, AROCLOR 1254 (10%), Method: PREINCUBATION
  mutagenic call: inactive; negative
Test System: AMES SALMONELLA TYPHIMURIUM, Strain/Indicator: TA1535, Metabolic Activation: HAMSTER, LIVER, S-9, AROCLOR 1254 (30%), Method: PREINCUBATION
  mutagenic call: inactive; negative
Test System: AMES SALMONELLA TYPHIMURIUM, Strain/Indicator: TA1535, Metabolic Activation: NONE, Method: PREINCUBATION
  mutagenic call: inactive; negative
Test System: AMES SALMONELLA TYPHIMURIUM, Strain/Indicator: TA1535, Metabolic Activation: RAT, LIVER, S-9, AROCLOR 1254 (10%), Method: PREINCUBATION
  mutagenic call: inactive; negative
Test System: AMES SALMONELLA TYPHIMURIUM, Strain/Indicator: TA1535, Metabolic Activation: RAT, LIVER, S-9, AROCLOR 1254 (30%), Method: PREINCUBATION
  mutagenic call: inactive; negative

## CC(=O)c1cc(O)c(C(C)C)c2cc(C)c(-c3c(C)cc4c(C(C)C)c(O)c(O)c(C=O)c4c3O)c(O)c12
Test System: AMES SALMONELLA TYPHIMURIUM, Strain/Indicator: TA97A, Metabolic Activation: S-9, Method: STANDARD PLATE
  mutagenic call: inactive; negative
Test System: AMES SALMONELLA TYPHIMURIUM, Strain/Indicator: TA98, Metabolic Activation: S-9, Method: STANDARD PLATE
  mutagenic call: inactive; negative
Test System: AMES SALMONELLA TYPHIMURIUM, Strain/Indicator: TA100, Metabolic Activation: S-9, Method: STANDARD PLATE
  mutagenic call: inactive; negative
Test System: AMES SALMONELLA TYPHIMURIUM, Strain/Indicator: TA102, Metabolic Activation: S-9, Method: STANDARD PLATE
  mutagenic call: inactive; negative

## O=c1[nH]c(=O)n([C@H]2C[C@H](O)[C@@H](CO)O2)cc1CO
Test System: AMES SALMONELLA TYPHIMURIUM, Strain/Indicator: TA98, Metabolic Activation: NONE, Method: STANDARD PLATE
  mutagenic call: inactive; negative
Test System: AMES SALMONELLA TYPHIMURIUM, Strain/Indicator: TA98, Metabolic Activation: RAT, LIVER, S-9, AROCLOR 1254, Method: STANDARD PLATE
  mutagenic call: inactive; negative
Test System: AMES SALMONELLA TYPHIMURIUM, Strain/Indicator: TA100, Metabolic Activation: NONE, Method: STANDARD PLATE
  mutagenic call: active; positive
Test System: AMES SALMONELLA TYPHIMURIUM, Strain/Indicator: TA100, Metabolic Activation: RAT, LIVER, S-9, AROCLOR 1254, Method: STANDARD PLATE
  mutagenic call: active; positive
Test System: AMES SALMONELLA TYPHIMURIUM, Strain/Indicator: TA102, Metabolic Activation: NONE, Method: STANDARD PLATE
  mutagenic call: active; positive
Test System: AMES SALMONELLA TYPHIMURIUM, Strain/Indicator: TA1537, Metabolic Activation: NONE, Method: STANDARD PLATE
  mutagenic call: inactive; negative
Test System: AMES SALMONELLA TYPHIMURIUM, Strain/Indicator: TA1537, Metabolic Activation: RAT, LIVER, S-9, AROCLOR 1254, Method: STANDARD PLATE
  mutagenic call: inactive; negative
Test System: CHINESE HAMSTER V-79, Strain/Indicator: V-79/6-THIOGUANINE, Metabolic Activation: NONE
  mutagenic call: active; positive
Test System: CHINESE HAMSTER V-79, Strain/Indicator: V-79/OUABAIN, Metabolic Activation: NONE
  mutagenic call: inactive; negative

## CC(C)CN(N=O)C(N)=O
Test System: E. COLI B, Strain/Indicator: H/R30R, Metabolic Activation: NONE
  mutagenic call: active; positive
Test System: E. COLI B, Strain/Indicator: HS30R, Metabolic Activation: NONE
  mutagenic call: active; positive
